Test results: patent EP4772520A1, “NOVEL PRODRUG-TYPE ANTICANCER AGENT TARGETING CANCER-SPECIFIC ENZYME ACTIVITY” (priority 2023, dated 2025)
Entries after “also recorded” stand apart in the source; their conditions may differ.

Key:
[1] = system: lung adenocarcinoma cell A549; assay: Cytotoxicity test by MTT assay method (A549); assay type: cell-based; conditions: for IC50: Homo sapiens, A549, 72 h, read-out: IC50 value
[2] = system: mouse Lewis lung cancer-derived cell line LLC (3LL); assay: Combination experiment with anti-PD-1 antibody, LLC subcutaneous tumor model; assay type: in vivo, mice; conditions: anti-PD-1 antibody 100 µg i.p. twice a week, SN38-βGlcNAc 150 mg/kg i.v. three times a week
Protocol: The effect of combination use of an anti-PD-1 antibody and SN38-βGlcNAc used as a main cancer immunotherapy in current lung cancer treatment was examined. Subcutaneous tumor model mice of a mouse Lewis lung cancer-derived cell line LLC (3LL) reported to have sensitivity to the anti-PD-1 antibody were evaluated, and the Vehicle (DMSO) group was n = 8, the anti-PD-1 antibody administration group was n = 5, the SN38-βGlcNAc administration group was n = 6, and the combination use group of the anti-PD-1 antibody and the SN38-βGlcNAc was n = 5. As an antibody, anti-mouse PD-1 antibody Clone RMP1-14 (Leinco Technologies, Inc.) was used. […]
A specific procedure of the therapeutic experiment is shown below. • (1) Hair on the dorsal side from the upper part of the right foot of C57BL/6JJcl (7 weeks old, female) was shaved with a hair clipper, and then LLC cells 2.0 ×10^6 cells (50 µL) were subcutaneously injected. • (2) The drug administration was started to the individual whose tumor volume reached about 50 to 170 mm^3 after 6 days. […] The anti-PD-1 antibody (Clone RMP1-14) was administered by intraperitoneal administration of 100 µg dissolved in 100 µL of PBS. • (3) The body weight was measured on the day of evaluation, and the tumor volume was evaluated with a vernier caliper. • (4) The time point when the tumor volume reached 2000 to 3000 mm^3 was taken as the endpoint.

[3] = system: lung squamous carcinomas cell H226; assay: Tumor proliferation suppression test in H226 subcutaneous tumor model; assay type: in vivo, mice; conditions: 200 mg/kg i.v. 3 times a week for 2 weeks, n = 5, vs Vehicle
Protocol: 200 mg/kg of SN38-βGlcNAc was intravenously administered 3 times a week for 2 weeks to subcutaneous tumor model mice of lung squamous carcinomas cell H226, and the tumor proliferation suppression effect was evaluated. The Vehicle (DMSO administration) group and the SN38-βGlcNAc administration group were n = 5, respectively.
The drug SN38-βGlcNAc was prepared by dissolving a 200 mM of DMSO stock in PBS, and was intravenously administered from the tail vein 3 times a week for 2 weeks at a dose of 200 mg/kg with a total amount of 100 µL. • (3) The body weight was measured on the day of evaluation, and the tumor volume was evaluated with a vernier caliper. • (4) Tumors were resected on day 19 from the start of dosing and their sizes were compared.

[4] = Single dose toxicity test 2 (intravenous); assay type: in vivo, Jcl: ICR mice (female); conditions: for Survival rate (%) (after 14 days) / Survival rate (%) (just after administration): n=10; for symptoms immediately after administration: SN38-βGal 300 mg/kg, SN38-βGlcNAc 500 mg/kg intravenous, improved in several hours; for LD50 at 336 h: mouse, in vivo, iv, single intravenous administration, estimated
Protocol: Single dose toxicity was evaluated by intravenously administering the novel prodrug-type anticancer agents SN38-βGal and SN38-βGlcNAc to Jcl: ICR mice (female). […] 500 mg/kg of SN38-βGlcNAc was intravenously administered.

[5] = system: luciferase-expressing A549 cells; assay: Therapeutic experiment 1 in A549 lung cancer orthotopic transplantation model; assay type: in vivo, mice; conditions: 40 mg/kg i.v., 3 times a week; for tumor suppression effect (luciferin/luciferase chemiluminescence): vs Vehicle
Protocol: The administration form was intravenous administration (i.v.). The dose was 40 mg/kg, and administration was performed 3 times a week for 4 times. The tumor burden was determined by evaluating the luciferin/luciferase chemiluminescence value. The endpoint was the time point of significant body weight loss (20% loss).
A specific procedure of the therapeutic experiment is shown below. • (1) Model mice were created by the following operation using BALB/cAJcl-nu/nu (7 weeks old). The skin of the chest was incised, and the skin was subcutaneously detached, then luciferase-expressing A549 cells 2 × 10^7 cells/mL (50 µL, 5% Matrigel) was injected from the intercostal pleura to the left lung. After injection, the skin was sutured. • (2) After 17 days, the formation of cancer was confirmed by luciferin/luciferase chemiluminescence, and the intravenous administration of the drug was started. The drug was prepared by dissolving a 200 mM of DMSO stock in PBS, and administered in a total amount of 100 µL. 3 mg (200 µL) of luciferin was administered by intraperitoneal administration, and anesthetized with isoflurane. Thereafter, the chemiluminescent value at 20 minutes after administration was measured by an in vivo imaging device. • (3) On the day of evaluation, the tumor burden was evaluated by the body weight and the luciferin/luciferase chemiluminescence.

[6] = system: luciferase-expressing SKOV3 cells; assay: Therapeutic experiment of SN38-βGal in SKOV3 ovarian cancer peritoneal dissemination model; assay type: in vivo, mice; conditions: for body weight: 20 mg/kg i.p. 5 times a week; for tumor proliferation suppression effect: 20 mg/kg i.p. 5 times a week over 4 weeks and 3 days, vs Vehicle, 20 mg/kg
Protocol: Next, the therapeutic effect of SN38-βGal in the ovarian cancer peritoneal dissemination model was verified. Vehicle (DMSO) group (n = 5), SN38-βGal, and 20 mg/kg (n = 4) were set, and 20 mg/kg was intraperitoneally administered 5 times a week (2 days off) over 4 weeks and 3 days.
A specific procedure of the therapeutic experiment is shown below. • (1) 1.5 × 10^6 luciferase-expressing SKOV3 cells were intraperitoneally administered to BALB/cAJcl-nu/nu (7 weeks old). • (2) After one week, the formation of cancer was confirmed by luciferin/luciferase chemiluminescence. • (3) Intraperitoneal administration of the drug was started in a cycle in which the drug was administered to the mice in which formation of cancer was confirmed for five consecutive days within 1 week and the drug was withdrawn for 2 days. The drug was prepared by dissolving a 100 mM of DMSO stock in PBS, and administered in a total amount of 100 µL. • (4) On the evaluation day, 3 mg of luciferin potassium dissolved in 200 µL of PBS was intraperitoneally administered, and anesthetized with isoflurane, and then the luminescence value 15 minutes after the administration was measured with an in vivo imaging device. At the same time, the body weight was measured.
According to the same protocol as that of the first therapeutic experiment, Vehicle (DMSO) group (n = 5), SN38-βGal, and 20 mg/kg (n = 4) were set, and 20 mg/kg was intraperitoneally administered 5 times a week (2 days off) over 4 weeks and 3 days.

Structure (SMILES)	cytotoxicity in the presence of inhibitor ([1]; A549, inhibitor PUGNAc of β-hexosaminidase)	IC50 [1] [nM]	body weight [2]	tumor proliferation suppression (tumor volume) ([2]; vs Vehicle)	tumor proliferation suppression effect (tumor volume) [3]	Survival rate (%) (after 14 days) ([4]; 200 mg/kg intravenous)	Survival rate (%) (just after administration) ([4]; 200 mg/kg intravenous)	Survival rate (%) (after 14 days) ([4]; 300 mg/kg intravenous)	Survival rate (%) (just after administration) ([4]; 300 mg/kg intravenous)	Survival rate (%) (after 14 days) ([4]; 500 mg/kg intravenous)	Survival rate (%) (just after administration) ([4]; 500 mg/kg intravenous)	symptoms immediately after administration [4]	LD50 at 336 h [4] [mg/kg]	body weight [5]	tumor suppression effect (luciferin/luciferase chemiluminescence) [5]	body weight ([6]; first experiment)	tumor proliferation suppression effect ([6]; first experiment)	body weight ([6]; second experiment)	tumor proliferation suppression effect ([6]; second experiment)
CCc1c2c(nc3ccc(O[C@@H]4O[C@H](CO)[C@@H](O)[C@H](O)[C@H]4NC(C)=O)cc13)-c1cc3c(c(=O)n1C2)COC(=O)[C@]3(O)CC [SN38-βGlcNAc]	cytotoxicity was significantly reduced	1350	no body weight loss was found in any group	showed tumor proliferation suppression	the tumor growth was almost completely suppressed	100	100	100	100	100	100	reduced locomotor activity and prone states were found in more than half of the mice in both groups	≥ 500	the slight body weight loss was found, but it was not remarkable as in CPT-11	tended to suppress tumor growth as in the CPT-11 administration group				
CCc1c2c(nc3ccc(O[C@@H]4O[C@H](CO)[C@H](O)[C@H](O)[C@H]4O)cc13)-c1cc3c(c(=O)n1C2)COC(=O)[C@]3(O)CC [SN38-βGal]		3380				100	100					reduced locomotor activity and prone states were found in more than half of the mice in both groups	≥ 300	the slight body weight loss was found, but it was not remarkable as in CPT-11	tended to suppress tumor growth as in the CPT-11 administration group	no significant body weight loss was found	the tumor proliferation suppression effect was suggested again; also recorded: significantly suppressed tumor growth	no significant body weight loss was found	the tumor proliferation suppression effect was confirmed again; also recorded: significantly suppressed tumor growth
